Measured values as given in patent publication US20230158158A1, “PYRAZOLO QUINAZOLINE DERIVATIVE COMPOUNDS INDUCING SELECTIVE DEGRADATION OF PLK1” (UPPTHERA, priority 2020, published 2023).

The molecules below were run against T1, PLK1 (Homo sapiens, UniProt P53350) (assay: PLK1 protein degradation by western blotting in HeLa cells). Conditions: thymidine block and release, compound 100 nM, 6 hours, PLK1/GAPDH ratio, read-out: PLK1 protein degradability (Dmax).
T1 construct: endogenous in cells; host or cells: HeLa
T1 sequence (P53350 whole entry): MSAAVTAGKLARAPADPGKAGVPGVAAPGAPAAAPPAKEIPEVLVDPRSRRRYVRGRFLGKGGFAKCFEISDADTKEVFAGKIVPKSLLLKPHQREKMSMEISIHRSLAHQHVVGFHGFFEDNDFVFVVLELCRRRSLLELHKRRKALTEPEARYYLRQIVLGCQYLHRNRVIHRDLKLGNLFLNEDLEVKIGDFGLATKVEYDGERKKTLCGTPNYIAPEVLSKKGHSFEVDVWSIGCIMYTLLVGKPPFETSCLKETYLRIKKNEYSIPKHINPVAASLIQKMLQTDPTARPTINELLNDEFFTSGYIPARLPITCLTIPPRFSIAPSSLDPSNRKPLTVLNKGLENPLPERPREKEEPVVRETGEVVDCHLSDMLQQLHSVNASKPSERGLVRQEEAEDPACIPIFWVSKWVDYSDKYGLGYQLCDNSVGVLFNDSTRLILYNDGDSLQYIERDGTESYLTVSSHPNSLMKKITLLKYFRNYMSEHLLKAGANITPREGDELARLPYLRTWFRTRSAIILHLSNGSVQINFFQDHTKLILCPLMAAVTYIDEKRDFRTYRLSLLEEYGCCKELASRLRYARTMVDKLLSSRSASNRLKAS
Assay type: cell-based
Experimental: The HeLa cell line was purchased from Korea Cell Line Bank (KCLB), Seoul, Korea. The passage in cell culture was maintained at P115 to P125.
2×10^5 cells were seeded for each well of a 12-well plate (SPL), and the cells were cultured in the culture medium in a total volume of 2 ml.
The compounds of Examples were completely dissolved in DMSO and used in the experiment, and thymidine was completely dissolved in DW and used in the experiment. For thymidine block, the products were treated with 2 mM of thymidine (Sigma-Aldrich Cat. No. T9250-5G) and then incubated for 24 hours.
For release and chemical treatment, the medium was suctioned and washed 3 times with 1×PBS. Complete media was added, followed by incubation for 4 hours in a CO2 incubator. Each compound was treated according to the concentration of 100 nM and then incubated for 6 hours again.
For SDS-PAGE and Western blotting, 1×RIPA lysis buffer (Rockland, Cat. No. MB-030-0050; Lot no. 39751), 100× Protease Inhibitor Cocktail (Quartett, Cat. No. PPI1015; Lot no. PC050038424), Pierce ? BCA protein assay kit (ThermoScientific, Cat. No. 23225; Lot no. UC276876), albumin standard (ThermoScientific, Cat. No. 23209; Lot no. UB269561), 4-15% Mini-PROTEAN TGX stain-free gel (Bio-rad, Cat. No. 4568085; Lot no. L007041B), 10× Tris/Glycine/SDS buffer (Bio-rad, Cat. No. 1610732; Lot no. 10000044375B); 10×TBS (Bio-rad, Cat. No. 1706435; Lot no. 1000045140B), 10% Tween 20 (Cat. No. 1610781; Lot no. L004152B), Color protein standard broad range (NEB, Cat. No. P7719S; Lot no. 10040349), 4× Laemmli sample buffer (Bio-rad, Cat. No. 1610747; Lot no. L004133B), β-mercaptoethanol (Sigma-Aldrich, Cat. No. M3148; Lot no. 60-24-2), SuperBlock ? T20 (TBS) blocking buffer (ThermoScientific, Cat. No. 37536; Lot no. UC282578), 1M sodium azide solution (Sigma-Aldrich, Cat. No. 08591-1 mL-F; Lot no. BCBV4989), α-Rabbit pAb to Ms IgG (abcam, Cat. No. ab97046; Lot no. GR3252115-1), α-Goat pAb to Rb IgG (CST, Cat. No. 7074S; Lot no. 28), α-GAPDH (abeam, Cat. No. ab8245; Lot no. GR3275542-2), α-Plk1 (CST, Cat. No. 208G4), α-BRD4 (CST, Cat. No. 13440S), ECL ? Prime western blotting reagents (GE Healthcare, Cat. No. RPN2232; Lot no. 17001655), Ponceau S solution (Sigma-Aldrich, Cat. No. P7170; Lot no. SLBV4112), Difco ? […]
Then, a standard curve was obtained using the BCA assay, and the protein mass in the lysate was quantified by substituting the curve equation. The mixture was incubated at 37° C. for 30 minutes using 20 μL of standard or sample solution, and 200 μL of BCA or Bradford solution, and measured at 562 nm absorbance. Samples were prepared by adding 4× sample buffer so that the quantity of protein added to each well was 15 μg. […]

Dmax at 0.1 µM, ≥ 60%:
COc1c(Nc2ncc3c(n2)-c2c(c(C(N)=O)nn2C)CC3)cc(N2CCN(C)CC2)cc1C(=O)NCCOCCOCCOCCNc1cccc2c1C(=O)N(C1CCC(=O)NC1=O)C2=O (stereo not shown) [Compound 3, 8-((3-((2-(2-(2-(2-((2-(2,6-dioxopiperidin-3-yl)-1,3-dioxoisoindolin-4-yl)amino)ethoxy)ethoxy)ethoxy)ethyl)carbamoyl)-2-methoxy-5-(4-methylpiperazin-1-yl)phenyl)amino)-1-methyl-4,5-dihydro-1H-pyrazolo[4,3-h]quinazoline-3-carboxamide]
COc1c(Nc2ncc3c(n2)-c2c(c(C(N)=O)nn2C)CC3)cc(N2CCN(C)CC2)cc1C(=O)NCCOCCOCC(=O)N[C@H](C(=O)N1C[C@H](O)C[C@H]1C(=O)NCc1ccc(-c2scnc2C)cc1)C(C)(C)C [Compound 9, 8-((3-((2-(2-(2-(((S)-1-((2S,4R)-4-hydroxy-2-((4-(4-methylthiazol-5-yl)benzyl)carbamoyl)pyrrolidin-1-yl)-3,3-dimethyl-1-oxobutan-2-yl)amino)-2-oxoethoxy)ethoxy)ethyl)carbamoyl)-2-methoxy-5-(4-methylpiperazin-1-yl)phenyl)amino)-1-methyl-4,5-dihydro-1H-pyrazolo[4,3-h]quinazoline-3-carboxamide]
Cn1nc(C(N)=O)c2c1-c1nc(Nc3cc(N4CCN(CCOCCOCCOCCOCCNc5cccc6c5C(=O)N(C5CCC(=O)NC5=O)C6=O)CC4)ccc3OC(F)(F)F)ncc1CC2 (stereo not shown) [Compound 7, 8-((5-(4-(14-((2-(2,6-dioxopiperidin-3-yl)-1,3-dioxoisoindolin-4-yl)amino)-3,6,9,12-tetraoxatetradecyl)piperazin-1-yl)-2-(trifluoromethoxy)phenyl)amino)-1-methyl-4,5-dihydro-1H-pyrazolo[4,3-h]quinazoline-3-carboxamide]
COc1c(Nc2ncc3c(n2)-c2c(c(C(N)=O)nn2C)CC3)cc(N2CCN(C)CC2)cc1C(=O)NCCOCCOCCNc1cccc2c1C(=O)N(C1CCC(=O)NC1=O)C2=O (stereo not shown) [Compound 2, 8-((3-((2-(2-(2-((2-(2,6-dioxopiperidin-3-yl)-1,3-dioxoisoindolin-4-yl)amino)ethoxy)ethoxy)ethyl)carbamoyl)-2-methoxy-5-(4-methylpiperazin-1-yl)phenyl)amino)-1-methyl-4,5-dihydro-1H-pyrazolo[4,3-h]quinazoline-3-carboxamide]
